Laboratory results taken from article PMC5736936, “Xylopine Induces Oxidative Stress and Causes G2/M Phase Arrest, Triggering Caspase-Mediated Apoptosis by p53-Independent Pathway in HCT116 Cells” (Oxidative Medicine and Cellular Longevity, 2017).
Read-outs that look alike come from different tables or passages of the source.

Key:
HCT116 cells [1] = type: cell-based, human
Protocol: Cells were harvested in a permeabilization solution containing 0.1% Triton X-100 (Sigma Chemical Co., St Louis, MO, USA), 2 μg/mL propidium iodide (Sigma Chemical Co.), 0.1% sodium citrate, and 100 μg/mL RNAse (Sigma Chemical Co.) and incubated in the dark for 15 min at room temperature. Finally, cell fluorescence was measured by flow cytometry on a BD LSRFortessa cytometer using the BD FACSDiva software (BD Biosciences) and FlowJo software 10 (FlowJo, LCC, Ashland, OR, USA).

[2] = tested on: HCT116 (human colon carcinoma); test: Cytotoxic activity, alamarBlue assay, 72 h; type: cell-based;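 on Selectivity index: SI is noncancer IC50 (MRC-5 or PBMC) divided by cancer cell IC50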
Source text: (§1) MCF7 (human breast carcinoma), HCT116 (human colon carcinoma), HepG2 (human hepatocellular carcinoma), SCC-9 (human oral squamous cell carcinoma), HSC-3 (human oral squamous cell carcinoma), HL-60 (human promyelocytic leukemia), K-562 (human chronic myelogenous leukemia), B16-F10 (murine melanoma), MRC-5 (human lung fibroblast), WT SV40 MEF (wild-type immortalized mouse embryonic fibroblast), and BAD KO SV40 MEF (BAD gene knockout immortalized mouse embryonic fibroblast) cell lines were obtained from the American Type Culture Collection (ATCC, Manassas, VA, USA). Cells were cultured in complete medium with appropriate supplements as recommended by ATCC. All cell lines were tested for mycoplasma using the Mycoplasma Stain Kit (Sigma-Aldrich) to validate the use of cells free from contamination. Primary cell culture of peripheral blood mononuclear cells (PBMC) was obtained by standard Ficoll density protocol. The Research Ethics Committee of the Oswaldo Cruz Foundation (Salvador, BA, Brazil) approved the experimental protocol (number 031019/2013). Cell viability was examined using trypan blue exclusion assay for all experiments.
(§2) Cell viability was quantified using the alamarBlue assay according to Ahmed et al.. Cells were inserted in 96-well plates for all experiments (7 × 10^4 cells/mL for adherent cells or 3 × 10^5 cells/mL for suspended cells in 100 μL of medium). After 24 h, xylopine was dissolved in dimethyl sulfoxide (DMSO) and added to each well and incubated for 72 h. […] Four (for cell lines) or 24 h (for PBMCs) before the end of incubation, 20 μL of a stock solution (0.312 mg/mL) of the alamarBlue (resazurin, Sigma-Aldrich Co., Saint Louis, MO, USA) was added to each well. Absorbance at 570 nm and 600 nm was measured using the SpectraMax 190 Microplate Reader (Molecular Devices, Sunnyvale, CA, USA), and the drug effect was quantified as the percentage of control absorbance.

[3] = tested on: K562 (human chronic myelogenous leukemia); test: Cytotoxic activity, alamarBlue assay, 72 h; type: cell-based;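 on Selectivity index: SI is noncancer IC50 (MRC-5 or PBMC) divided by cancer cell IC50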
Source text: as §1, §2

[4] = tested on: HepG2 (human hepatocellular carcinoma); test: Cytotoxic activity, alamarBlue assay, 72 h; type: cell-based
Source text: as §1, §2

[5] = tested on: HL-60 (human promyelocytic leukemia); test: Cytotoxic activity, alamarBlue assay, 72 h; type: cell-based;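 on Selectivity index: SI is noncancer IC50 (MRC-5 or PBMC) divided by cancer cell IC50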
Source text: as §1, §2

[6] = tested on: MCF7 (human breast carcinoma); test: Cytotoxic activity, alamarBlue assay, 72 h; type: cell-based;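 on Selectivity index: SI is noncancer IC50 (MRC-5 or PBMC) divided by cancer cell IC50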
Source text: as §1, §2

[7] = tested on: B16-F10 (murine melanoma); test: Cytotoxic activity, alamarBlue assay, 72 h; type: cell-based
Source text: as §1, §2

[8] = tested on: HSC3 (human oral squamous cell carcinoma); test: Cytotoxic activity, alamarBlue assay, 72 h; type: cell-based
Source text: as §1, §2

[9] = tested on: SCC9 (human oral squamous cell carcinoma); test: Cytotoxic activity, alamarBlue assay, 72 h; type: cell-based
Source text: as §1, §2

HCT116 cells [10] = test: Nitric oxide production (DAF-FM diacetate); type: cell-based, human; settings: 1 h
Protocol: Nitric oxide generation was detected with 4-amino-5-methylamino-2′-,7′-difluofluorescein diacetate (DAF-FM diacetate) (Molecular Probes, Eugene, OR, USA). The cells were labeled with 3 μM of DAF-FM diacetate for 60 minutes at 37°C. Following staining cells were washed with saline and incubated for an additional 15 minutes at 37°C to allow for complete deesterification of the intracellular diacatates. Then, the nitric oxide radical was measured by flow cytometry as described above.

calf thymus DNA (ctDNA) = test: DNA intercalation assay (ethidium bromide displacement); type: binding; settings: 10 or 20 μM xylopine, 15 μg/mL ctDNA, 1.5 μM ethidium bromide
Protocol: DNA intercalation was assessed by examining the ability of xylopine to displace ethidium bromide from calf thymus DNA (ctDNA, Sigma-Aldrich Co.). The assay was conducted in 96-well plates and contained 15 μg/mL ctDNA, 1.5 μM ethidium bromide, and 10 or 20 μM xylopine in 100 μL saline solution. […] Fluorescence was measured using excitation and emission wavelengths of 320 and 600 nm, respectively.

[11] = HCT116, XYL 3.5 μM, 24 h incubation
[12] = HCT116, XYL 3.5 μM, 48 h incubation
[13] = HCT116, XYL 7 μM, 24 h incubation
[14] = HCT116, XYL 7 μM, 48 h incubation
[15] = HCT116, XYL 14 μM, 24 h incubation
[16] = HCT116, XYL 14 μM, 48 h incubation

COc1ccc2c(c1)C[C@@H]1NCCc3cc4c(c-2c31)OCO4 [XYL, xylopine]
DNA content (%) G0/G1 (HCT116 cells [1]; [11]): 17.0 ± 7.0^∗ %
DNA content (%) G2/M (HCT116 cells [1]; [11]): 57.2 ± 3.5^∗ %
DNA content (%) S (HCT116 cells [1]; [11]): 24.7 ± 4.8%
DNA content (%) Sub-G0/G1 (HCT116 cells [1]; [11]): 6.2 ± 1.9%
DNA content (%) G2/M (HCT116 cells [1]; HCT116, XYL 3.5 μM, 24 h incubation, listed as xylopine): 57.2%
DNA content (%) G0/G1 (HCT116 cells [1]; [12]): 17.0 ± 6.3^∗ %
DNA content (%) G2/M (HCT116 cells [1]; [12]): 52.0 ± 6.8^∗ %
DNA content (%) S (HCT116 cells [1]; [12]): 11.1 ± 2.2%
DNA content (%) Sub-G0/G1 (HCT116 cells [1]; [12]): 15.2 ± 1.9%
DNA content (%) G2/M (HCT116 cells [1]; HCT116, XYL 3.5 μM, 48 h incubation, listed as xylopine): 52.0%
DNA content (%) G0/G1 (HCT116 cells [1]; [13]): 14.9 ± 4.2^∗ %
DNA content (%) G2/M (HCT116 cells [1]; [13]): 58.5 ± 2.9^∗ %
DNA content (%) S (HCT116 cells [1]; [13]): 23.3 ± 3.7%
DNA content (%) Sub-G0/G1 (HCT116 cells [1]; [13]): 5.1 ± 1.6%
DNA content (%) G2/M (HCT116 cells [1]; HCT116, XYL 7 μM, 24 h incubation, listed as xylopine): 58.5%
DNA content (%) G0/G1 (HCT116 cells [1]; [14]): 10.3 ± 1.3^∗ %
DNA content (%) G2/M (HCT116 cells [1]; [14]): 52.7 ± 3.6^∗ %
DNA content (%) S (HCT116 cells [1]; [14]): 6.8 ± 2.0%
DNA content (%) Sub-G0/G1 (HCT116 cells [1]; [14]): 25.9 ± 2.5^∗ %
DNA content (%) G2/M (HCT116 cells [1]; HCT116, XYL 7 μM, 48 h incubation, listed as xylopine): 52.7%
DNA content (%) G0/G1 (HCT116 cells [1]; [15]): 30.5 ± 6.0%
DNA content (%) G2/M (HCT116 cells [1]; [15]): 54.0 ± 6.1^∗ %
DNA content (%) S (HCT116 cells [1]; [15]): 11.1 ± 1.6%
DNA content (%) Sub-G0/G1 (HCT116 cells [1]; [15]): 11.3 ± 1.4%
DNA content (%) G2/M (HCT116 cells [1]; HCT116, XYL 14 μM, 24 h incubation, listed as xylopine): 54.0%
DNA content (%) G0/G1 (HCT116 cells [1]; [16]): 14.6 ± 2.6^∗ %
DNA content (%) G2/M (HCT116 cells [1]; [16]): 40.8 ± 5.7^∗ %
DNA content (%) S (HCT116 cells [1]; [16]): 9.3 ± 1.7%
DNA content (%) Sub-G0/G1 (HCT116 cells [1]; [16]): 33.4 ± 6.2^∗ %
DNA content (%) G2/M (HCT116 cells [1]; HCT116, XYL 14 μM, 48 h incubation, listed as xylopine): 40.8%
IC50 ([2]; Homo sapiens, HCT-116, HCT116, alamarBlue, 72 h): 6.4 µM
Selectivity index ([2]; IC50(MRC5)/IC50(HCT116)): 3.8
Selectivity index ([2]; IC50(PBMC)/IC50(HCT116)): 2.9
IC50 ([3]; Homo sapiens, K562, alamarBlue, 72 h): 7.8 µM
Selectivity index ([3]; IC50(MRC5)/IC50(K-562)): 3.1
Selectivity index ([3]; IC50(PBMC)/IC50(K-562)): 2.4
IC50 ([4]; Homo sapiens, HepG2, alamarBlue, 72 h): 9.4 µM
Selectivity index ([4]; IC50(MRC5)/IC50(HepG2)): 2.6
Selectivity index ([4]; IC50(PBMC)/IC50(HepG2)): 2
IC50 ([5]; Homo sapiens, HL-60, alamarBlue, 72 h): 18.5 µM
Selectivity index ([5]; IC50(MRC5)/IC50(HL-60)): 1.3
Selectivity index ([5]; IC50(PBMC)/IC50(HL-60)): 1
IC50 ([6]; Homo sapiens, MCF7, alamarBlue, 72 h): 12 µM
Selectivity index ([6]; IC50(MRC5)/IC50(MCF7)): 2
Selectivity index ([6]; IC50(PBMC)/IC50(MCF7)): 1.5
Selectivity index ([7]; IC50(MRC5)/IC50(B16-F10)): 2.5
Selectivity index ([7]; IC50(PBMC)/IC50(B16-F10)): 1.9
IC50 ([7]; Mus musculus, B16-F10, alamarBlue, 72 h): 9.6 µM
IC50 ([8]; Homo sapiens, HSC-3, HSC3, alamarBlue, 72 h): 15.7 µM
Selectivity index ([8]; IC50(MRC5)/IC50(HSC-3)): 1.5
Selectivity index ([8]; IC50(PBMC)/IC50(HSC-3)): 1.2
IC50 ([9]; Homo sapiens, SCC-9, SCC9, alamarBlue, 72 h): 26.6 µM
Selectivity index ([9]; IC50(MRC5)/IC50(SCC-9)): 0.9
Selectivity index ([9]; IC50(PBMC)/IC50(SCC-9)): 0.7
nitric oxide level (HCT116 cells [10]): increases nitric oxide
displacement of ethidium bromide from ctDNA (fluorescence intensity) (calf thymus DNA (ctDNA)): not able to decrease the ethidium bromide fluorescence
